According to patent US11738007B2, “Treatment of glaucoma using endothelin receptor antagonists” (Perfuse Therapeutics, Inc., priority 2019, dated 2023):
pIC50: −log10 of the molar value.

Assays:
ETA receptor = target: T1, ETA receptor (Homo sapiens, UniProt P25101); experiment: Functional potency for ETA receptor; format: biochemical
T1 sequence (P25101 21-427): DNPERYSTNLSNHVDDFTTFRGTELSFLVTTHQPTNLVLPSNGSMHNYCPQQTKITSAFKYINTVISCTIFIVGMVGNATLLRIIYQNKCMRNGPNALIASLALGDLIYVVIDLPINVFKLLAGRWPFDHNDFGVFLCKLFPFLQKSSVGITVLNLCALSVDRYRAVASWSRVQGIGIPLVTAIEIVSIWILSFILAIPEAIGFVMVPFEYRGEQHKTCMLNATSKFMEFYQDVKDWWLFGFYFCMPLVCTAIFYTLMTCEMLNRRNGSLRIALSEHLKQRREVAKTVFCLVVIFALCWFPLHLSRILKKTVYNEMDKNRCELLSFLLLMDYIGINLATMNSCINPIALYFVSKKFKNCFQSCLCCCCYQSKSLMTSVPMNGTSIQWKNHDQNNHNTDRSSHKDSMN
Source text: (§1) In the above table, the physicochemical data, e.g., solubility, were obtained following standard protocols known in the field (see, e.g., Reis et al., Mini Rev Med Chem., 2010, 10(11):1071-6; Avdeef et al., Expert Opin Drug Metab Toxicol., 2005, 1(2):325-42; Bharate et al., Comb Chem High Throughput Screen., 2016, 19(6):461-9; and Jain et al., J Pharm Biomed Anal., 2013, 86:11-35); and the biochemical data, i.e., potency for ETA/ETB, were obtained following the protocols known in the field (see, e.g., Kirkby et al., Br J Pharmacol., 2008, 153(6):1105-19; and Maguire et al., Br J Pharmacol., 2014, 171(24):5555-72).

ETA/ETB receptor = experiment: ETA/ETB selectivity (specificity); format: biochemical; settings: ETA versus ETB, rating in words
Source text: as §1

Stability in solid state = format: physicochemical; settings: 2 h @ l25° C.
Source text: as §1

LogD = format: physicochemical; settings: pH 7.4
Source text: as §1

Permeability (PAMPA) = format: in vitro ADME; settings: rating in words
Source text: as §1

ET-1 induced vasospasm = experiment: Rabbit ET-1 induced vasospasm model, retinal blood flow; format: in vivo
Description: Adult, male Dutch-belted rabbits were given a 20 μl intravitreal injection (IVT) of 0.5 μg of ET-1 followed by a 20 μl intravitreal injection of 10-100 μg Edonentan given 30 min after the ET-1 administration. IOP, optical coherence tomography-angiography (OCT-A), and fluorescein angiograms (FA) were performed at pre-specified time points (30, 45, 60, and 75 min) following ET-1 and Edonentan administration to assess retinal blood flow changes induced by ET-1+/−Edonentan. […] To evaluate the effect of retinal blood flow following intravitreally administered endothelin-1 (ET-1) followed by the antagonist Edonentan in the rabbit, rabbits (Oryctolagus cuniculus) were given a 20 μL intravitreal injection of ET-1 in the left eye followed by a 20 μL intravitreal injection of Edonentan at 2 (or 3) different doses (e.g. 0.1 μg, 0.5 μg, 2.5 μg). The pulse ox, tonometry, optical coherence tomography angiography (OCTA), fluorescein angiography (FA) and retinal leakage scoring were performed for evaluation.

[1] = system: elevated intraocular pressure (IOP); experiment: Morrison's rat model of glaucoma (elevated IOP); format: in vivo, Brown Norway rats; settings: topical eye drops 100 μg per dose, five days a week, four weeks
Source text: Adult male and female retired breeder Brown Norway rats (approximate age groups of 8 to 11 months) were obtained from Envigo (Indianapolis, Ind.). Baseline IOP measurements and pattern electroretinogram (PERG) amplitudes were collected prior to the surgery for elevation of IOP (to ensure that the IOP and PERG amplitudes were in the expected range of values). IOP was elevated in one eye (left eye) of the rats, while the corresponding right eyes served as contralateral controls. The Morrison method to elevate IOP in rats was carried out by injection of 50 μL of hypertonic saline through the episcleral veins to sclerose the trabecular meshwork. IOP was measured twice a week throughout the entire duration of the experiment. […] After detecting an elevation of IOP for two consecutive days, topical administration of eye drops (20 μL (100 μg) per dose of the tested compounds in the IOP elevated eye) was commenced and carried out for five days a week for a total of four weeks. In the 4th week of treatment, PERG analysis was carried out and rats were sacrificed by an overdose of pentobarbital (Fatal-Plus). Aqueous humor was collected from the rat eyes, frozen and shipped for analysis. Retinal flat mounts were prepared, immunostained with the RGC marker, Brn3a antibody and surviving RGCs were counted in two eccentricities (central and peripheral). For this study, the Morrison's model was used to induce ocular hypertension in adult male retired breeder Brown Norway rats as previously described by Morrison et al., (Morrison J C, Moore […], Gold […], Johnson E C. A rat model of chronic pressure-induced optic nerve damage. Exp Eye Res. 1997; 64(1):85-96). The immunostained retinal flat mounts were obtained to measure the retinal ganglion cell (RGC) counts. To obtain immunostained retinal flat mounts, the animals were euthanized after the treatments and then their eyes were enucleated. The eye cups were fixed overnight at 4° C. in 4% paraformaldehyde (PFA) and retinal flat mounts were prepared for collecting images. The retinal ganglion cell (RGC) counting was conducted using the images of immunostained retinal flat mounts. The images were uploaded to ImageJ, a photo editor designed for biology research (Rasband, 1997-2018) and the labeled retinal ganglion cells were counted manually in two eccentricities (central and peripheral). […] Pattern ERG (PERG) was used to assess the RGC function. […] Briefly, PERG signals were acquired from a DTL-plus electrode placed on the lower part of the corneal surface and the PERG waves were analyzed using the EMWIN software (LKC). The difference between the amplitude of the major positive (P1) and negative (N2) waves were calculated to […] amplitude.

[2] = Pharmacokinetics after topical or oral administration in the rat; format: in vivo, Brown Norway rats
Description: After the administrations, the animals (N=2) were euthanized at different time points (e.g. 4 and 8 hours) and tissues were collected for analysis. List of tissues collected include plasma, retina/retinal pigment epithelium (RPE)/choroid, vitreous humor and aqueous humor.

SMILES: Cc1onc(NS(=O)(=O)c2ccccc2-c2ccc(-c3ncco3)cc2CN(C)C(=O)CC(C)(C)C)c1C [Edonentan, N-[[2′-[[(4,5-dimethyl-3-isoxazolyl)amino]sulfonyl]-4-(2-oxazolyl)[1,1′-biphenyl]-2-yl]methyl]-N,3,3-trimethylbutanamide]
- pIC50 (ETA receptor; functional potency): 8.81
- Functional Potency for ETA and ETB Receptors (rating) (ETA receptor; rating in words): High potency
- Specificity (rating) (ETA/ETB receptor): High specificity
- Stability in Solid State (rating) (Stability in solid state): Stable
- logD (LogD): 1.48
- Permeability (rating) (Permeability (PAMPA)): Mid-High
- Fluorescein dye velocity, dose dependence (ET-1 induced vasospasm; 0.1 μg ET-1 and 0.1, 0.5, 2.5 or 10 μg Edonentan IVT, FIG. 8A/8B): dose-response
- Effect of ET-1 (retinal vasoconstriction) after antagonist, fluorescein angiography (ET-1 induced vasospasm; 0.5 μg ET-1 IVT, 10 μg Edonentan IVT 30 min after ET-1): reversed
- Time to reversal of ET-1 effect (ET-1 induced vasospasm; 0.5 μg ET-1 IVT, 10 μg Edonentan IVT, time after ET-1 (60 min after Edonentan)): ≤ 90 min
- Fluorescein dye velocity as an index of retinal blood flow (ET-1 induced vasospasm; 0.5 μg ET-1 and 10 μg antagonist IVT, healthy rabbits, FIG. 3): improved to control levels
- RGC function, pattern electroretinogram (PERG) changes [1]: maintained RGC function
- Retinal ganglion cell (RGC) counts, peripheral retina [1]: prevented RGC loss
- Detection in aqueous humor ([2]; oral, 17 mg/kg): detectable
- Detection in retina/RPE/choroid and vitreous humor ([2]; oral, 1.7 and 17 mg/kg): detectable
- Detection in retina/RPE/choroid, aqueous humor and vitreous humor ([2]; topical eye drop 100 μg, 4 and 8 hours post-administration): detected
